For 85 compounds, AC50 results are on record in PubChem BioAssay AID463206 (Broad Institute, 2010).

Structures are written as SMILES. Calls of active or inactive are those of the source.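 How the source made its calls: active means caspase luminescence falls with dose and the half-maximal concentration AC50 from the fitted curve is at or below a set limit; inconclusive means flat fit at 30 to 70% signal loss, or invalid fit; inactive means AC50 above the limit, or signal rises instead.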

The subject of the test is INS-1E cytokine-induced caspase-3/7, Caspase-Glo luminescence, 48 h. Nature of the test: inhibitors of cytokine-induced caspase-3/7 activity, dose response, orthogonal assay for beta-cell apoptosis protection project, INS-1E rat cells, luminescence (AID 463206).
By AC50 is commonly meant the midpoint of the concentration-response curve, whichever way the signal moves. As to `C(#Cc1ccccc1)C[N+]1(CC#Cc2cccc3ccccc23)CCCC1`, the AC50 was > 26 µM (inactive).

Turning to `Cc1nc(N2CCN(C(=O)c3ccco3)CC2)c2c3c(sc2n1)CC(C)CC3` (stereo not given), the AC50 was > 26 µM (inactive).

As to `CCCCCCSc1cc(-c2nc3ccc(C)cn3c2NCCCC)ccc1OC`, the AC50 was > 26 µM (inactive).

As for `COc1ccc(S(=O)(=O)N2CCNCC2)cc1OC`, the AC50 is > 26 µM (inactive).

As to `Cn1nccc1C(=O)NC1CCCc2c1cnn2-c1ccc(F)cc1F` (stereo not given), the AC50 was > 26 µM (inactive).

For the compound `N=c1c2c(n(Cc3ccc(Cl)c(Cl)c3)c3c1CCC3)CCCC2`, the AC50 was > 26 µM (inactive).

With `Cc1nc2ccccn2c1C(=O)/C=C/c1cccc([N+](=O)[O-])c1`, the AC50 was > 26 µM (inactive).

For `c1ccc(-c2cc(-c3ccccc3)[n+](-c3ccccc3)c(-c3ccccc3)c2)cc1`, the AC50 is > 26 µM (inactive).

With `CCOC(=O)N1CCN(S(=O)(=O)c2ccc(C(=O)NNc3nc4ccc(Cl)cc4s3)cc2)CC1`, the AC50 was > 26 µM (inactive).

In the case of `O=C(Cn1c(-c2ccccc2)c[n+]2ccsc12)c1ccc([N+](=O)[O-])cc1`, the AC50 is > 26 µM (inactive).

Consider `CCN(CC)S(=O)(=O)c1cccc(NC(=O)Nc2cccc(C(F)(F)F)c2)c1`, for which the AC50 was > 26 µM (inactive).

Take `Cc1nn(-c2ccccc2)c(C)c1NC(=O)COc1ccc(Br)cc1Cl`: the AC50 was > 26 µM (inactive).

On to `C=CCNC(=S)N/N=C(\C)c1ccccn1`, for which the AC50 is > 26 µM (inactive).

With `Brc1ccc(N/N=C(/N=Nc2nn[nH]n2)c2ccccc2)cc1`, the AC50 was > 26 µM (inactive).

As to `CCOC(=O)N1CCN(S(=O)(=O)c2ccc(C(=O)NNc3nc4cc(C)cc(C)c4s3)cc2)CC1`, the AC50 is > 26 µM (inactive).

Regarding `O=[N+]([O-])c1ccccc1-c1cc(-c2ccccc2)cc(-c2ccccc2)[n+]1Cc1ccccc1Cl`, the AC50 was > 26 µM (inactive).

Turning to `CCn1c(C)nc2cc(C(=O)N/N=C/c3cccc(O)c3O)ccc21`, the AC50 is > 26 µM (inactive).

On to `Cc1ccc2nc(NNC(=O)c3ccc(S(=O)(=O)N4CCc5ccccc5C4)cc3)sc2c1`, for which the AC50 was > 26 µM (inactive).

With `COc1ccc(C(NC(C)=O)c2cc(Cl)c3cccnc3c2O)cc1` (stereo not given), the AC50 is > 26 µM (inactive).

For the compound `COc1cc(Br)cc(/C=N/NC(=O)Cc2ccc(C(F)(F)F)cc2[N+](=O)[O-])c1O`, the AC50 is > 26 µM (inactive).

As to `Cc1ccc(C2C(C=Nc3c(C)n(C)n(-c4ccccc4)c3=O)=C(c3ccccc3)Oc3ccccc32)cc1` (stereo not given), the AC50 is > 26 µM (inactive).

With `COc1ccc(OCc2n(CC(=O)OC3CC(C)CCC3C(C)C)c3ccccc3[n+]2C)cc1` (stereo not given), the AC50 was > 26 µM (inactive).

In the case of `CCOC(=O)c1cnc(-n2nc(C)cc2C)nc1NC1CCCC1`, the AC50 was > 26 µM (inactive).

As for `CC(C)c1ccc(COc2ccc(C(=O)N3CCOCC3)cc2)cc1`, the AC50 is > 26 µM (inactive).

Take `c1ccc(-c2nnc3sc(-c4csc5c4CCCC5)nn23)cc1`: the AC50 was > 26 µM (inactive).

With `Cn1ncc2c(N3CCN(c4ccc(Cl)c(Cl)c4)CC3)ncnc21`, the AC50 is > 26 µM (inactive).

For `Cc1cc(C)n(-c2nc(NCCO)c3c4c(sc3n2)CCCC4)n1`, the AC50 is > 26 µM (inactive).

Consider `CCCOc1ccc(/C=N/Nc2cc(N3CCOCC3)ncn2)c(O)c1`, for which the AC50 was > 26 µM (inactive).

As for `COc1cccc(N=Nc2ccc(O)c3ncccc23)c1`, the AC50 was > 26 µM (inactive).

For the compound `NC(N)=N/N=C/c1ccc(N(c2ccccc2)c2ccccc2)cc1`, the AC50 is > 26 µM (inactive).

As to `CCCN(CCC)c1nc(-c2ccccn2)nc2ccccc12`, the AC50 was > 26 µM (inactive).

In the case of `Cc1ccc2nc(/C(C#N)=C\c3ccc([N+](=O)[O-])o3)[nH]c2c1`, the AC50 was > 26 µM (inactive).

Take `O=C(Nc1ccc(OC(F)F)c(Cl)c1)C(c1ccccc1)c1ccccc1`: the AC50 was > 26 µM (inactive).

With `CC(=O)Oc1c(I)cc(I)cc1C(=O)Nc1ccc(Cl)cc1`, the AC50 was > 26 µM (inactive).

With `CCc1ccc(S(=O)(=O)/N=C2\C=C(Nc3ccc(C(=O)O)cc3)C(=O)c3ccccc32)cc1`, the AC50 was > 26 µM (inactive).

Take `O=C1C=C(Nc2ccccc2)C(=O)c2ccccc21`: the AC50 is > 26 µM (inactive).

As to `O=C(CC1CC2CCC1C2)NCCc1ccc(Cl)cc1` (stereo not given), the AC50 is > 26 µM (inactive).

On to `Cc1ccccc1Oc1cc(NC(=O)CCCn2nc(C)c([N+](=O)[O-])c2C)cc([N+](=O)[O-])c1`, for which the AC50 is > 26 µM (inactive).

As for `COc1cccc(/C=N/Nc2snc(SC)c2C#N)c1O`, the AC50 is > 26 µM (inactive).

As to `Cc1cccc2nc(CSc3nc4[nH]ncc4c(=O)n3-c3cccc(Cl)c3)cc(=O)n12`, the AC50 is > 26 µM (inactive).

As to `Oc1c(CN2CCN(c3ccccc3)CC2)cc(Br)c2cccnc12`, the AC50 is > 26 µM (inactive).

Consider `Cc1cccc2sc(NNC(=O)c3ccc(S(=O)(=O)N4CC(C)CC(C)C4)cc3)nc12` (stereo not given), for which the AC50 was > 26 µM (inactive).

As to `CC(NC(=S)NC1CCCCC1)c1ccc(C(C)(C)C)cc1` (stereo not given), the AC50 was > 26 µM (inactive).

Turning to `CCC(=O)NC(c1ccc(C)cc1)c1cc(Cl)c2cccnc2c1O` (stereo not given), the AC50 was > 26 µM (inactive).

`CC(=O)c1ccc(N2CCN(S(=O)(=O)c3ccc4c(c3)CC(C)N4C(C)=O)CC2)cc1` (stereo not given): the AC50 is > 26 µM (inactive).

Regarding `NS(=O)(=O)c1ccc(N/N=C2/CCCCC2C2CCCCC2)c([N+](=O)[O-])c1` (stereo not given), the AC50 is > 12 µM (inactive).

On to `O=C(Nc1nc(-c2ccccc2)cs1)c1ccccc1NS(=O)(=O)c1ccc(F)cc1`, for which the AC50 is > 26 µM (inactive).

As for `Cc1ccccc1CS(=O)(=O)c1nnc([C@H](Cc2ccccc2)NC(=O)OC(C)(C)C)o1`, the AC50 was > 26 µM (inactive).

As for `COc1ccccc1N1CC(C)(C)C(=O)N(C(=O)c2ccc(Cl)cc2)C1=S`, the AC50 is > 12 µM (inactive).

For `COc1ccc(CC2(CO)CCN(CC3=Cc4cc(Cl)ccc4OC3)CC2)cc1`, the AC50 was > 26 µM (inactive).

On to `COc1ccc2nc(C)cc(N/N=C/c3ccc(F)cc3)c2c1`, for which the AC50 is > 26 µM (inactive).

For `N#Cc1c([N+](=O)[O-])cc([N+](=O)[O-])cc1S(=O)(=O)Cc1ccccc1`, the AC50 was > 26 µM (inactive).

For the compound `O=[N+]([O-])c1ccc(O)c(/C=N/Nc2nc3ccccc3[nH]2)c1`, the AC50 was > 26 µM (inactive).

As to `O=C(/C=C/NNC(=O)c1ccccc1)c1ccc([N+](=O)[O-])cc1`, the AC50 was > 26 µM (inactive).

Regarding `Cc1cc(C)cc(NC(=O)/C(C#N)=C/c2cn(CC(=O)NCc3ccco3)c3ccccc23)c1`, the AC50 was > 26 µM (inactive).

For `Cc1ccc(C)c(N=Nc2ccc(O)c3ncccc23)c1`, the AC50 is > 26 µM (inactive).

For the compound `CCc1c(C2(O)CCCCC2)[nH]c2cc(C(F)(F)F)ccc12`, the AC50 is > 26 µM (inactive).

As for `Cc1ccc2[nH]c3c(N4CCc5ccccc5C4)ncnc3c2c1`, the AC50 was > 26 µM (inactive).

As to `CC(C)C[C@H]1CN=C(Nc2ccccc2)N1CC1CCC(C(C)(C)C)CC1` (stereo not given in full), the AC50 was > 26 µM (inactive).

As to `COc1cccc(/C=N/Nc2ncc(C(F)(F)F)cc2Cl)c1O`, the AC50 was > 26 µM (inactive).

As for `CC[N+](C)(CC)CCC(c1ccccc1)C1CCCCC1` (stereo not given), the AC50 was > 26 µM (inactive).

For the compound `CC#CC[N+](C)(C)CCCCCCCCCCCC`, the AC50 was > 26 µM (inactive).

Take `COc1ccc(/C=C/C(=O)c2ccc([N+](=O)[O-])o2)cc1OC`: the AC50 was > 26 µM (inactive).

Regarding `Cc1ccc(C)c(S(=O)(=O)Nc2cc(SCC(=O)O)c(O)c3ccccc23)c1`, the AC50 was > 26 µM (inactive).

As for `Cn1ncnc2c(=O)n(C)c(=O)nc1-2`, the AC50 is > 26 µM (inactive).

On to `O=C(NCc1cccnc1)c1ccc([N+](=O)[O-])cc1`, for which the AC50 was > 26 µM (inactive).

Regarding `Cc1cc(C)c2c(C)[nH]nc2n1`, the AC50 is > 26 µM (inactive).

`CNC[C@H](Cc1ccccc1)NC[C@@H](Cc1cccc2ccccc12)NCCc1ccc(C)cc1`: the AC50 is > 26 µM (inactive).

With `Nc1nc2ccccc2n1/N=C/c1ccc([N+](=O)[O-])s1`, the AC50 is > 26 µM (inactive).

Regarding `Cc1cccc(NC(=S)Nc2ccc3cn[nH]c3c2)c1`, the AC50 was > 26 µM (inactive).

As to `CCCNC(=O)c1c(N)n(-c2cccc(OC)c2)c2nc3ccccc3nc12`, the AC50 is > 26 µM (inactive).

As to `COc1ccc(N=Nc2ccc(O)c3ncccc23)cc1`, the AC50 is > 12 µM (inactive).

Regarding `COC(=O)C1=C(C)N(Cc2ccccc2)C(=NCc2cccc(C(F)(F)F)c2)N[C@H]1c1cccc(F)c1`, the AC50 was > 26 µM (inactive).

Consider `COc1ccc(C(=O)CSc2n[nH]c(=O)n2Cc2ccco2)cc1`, for which the AC50 was > 26 µM (inactive).

Consider `Cc1ccc2cc(C3C(C#N)=C(N)Oc4c3ccc3cccnc43)c(=O)[nH]c2c1` (stereo not given), for which the AC50 was > 26 µM (inactive).

As to `COc1ccc2[nH]c3c(C)c4ccncc4c(C)c3c2c1`, the AC50 was 1.32 µM.

Consider `CCN(CC)c1ccc(C(=O)N/N=C/c2ccccc2OC(F)F)cc1`, for which the AC50 is > 26 µM (inactive).

Take `O=C(Nc1nc(-c2ccccn2)cs1)c1ccc(F)c(S(=O)(=O)N2CCOCC2)c1`: the AC50 was > 26 µM (inactive).

Turning to `Cc1ccc(O)c(N=Nc2nccs2)c1`, the AC50 is > 26 µM (inactive).

On to `O=C(Nc1cc(Sc2ccccn2)cc([N+](=O)[O-])c1)c1ccc(Cl)cc1`, for which the AC50 was > 26 µM (inactive).

As to `CN(Cc1ccccc1)C(=O)c1nc2ccccn2c1CN1CCCC1c1nccs1` (stereo not given), the AC50 was > 26 µM (inactive).

Consider `O=C(c1cc(COc2cccc(C(F)(F)F)c2)on1)N1CCC(c2ccncc2)CC1`, for which the AC50 is > 26 µM (inactive).

As to `O=C(NCc1cccnc1)/C(=C\c1ccc(-c2ccc(Br)cc2)o1)S(=O)(=O)c1ccccc1`, the AC50 is > 26 µM (inactive).

Take `CN(C)S(=O)(=O)c1cccc(CSCc2cccc(S(=O)(=O)N(C)C)c2)c1`: the AC50 was > 26 µM (inactive).

As for `CC(C)(C)c1cnnn1-c1ccc(/C=N/Nc2ccc([N+](=O)[O-])cc2)cc1`, the AC50 was > 26 µM (inactive).
